Data on one compound can be found in article PMC7611821 (ACS synthetic biology, 2020).

The test concerns the target Ec-F1F0 (E. coli ATP synthase) (Escherichia coli, UniProt P0ABB0+P0ABB4). Nature of the test: NADH-driven ATP synthesis in proteoliposomes, luciferase luminescence. It is filed as biochemical. The note with it: turnover only; 50 μM ADP, 20 mM Tris-PO4 pH 7.4, 5 mM MgCl2, 200 μM NADH, 20 °C.

SMILES strings stand for the structures.

Sequence of Ec-F1F0 (E. coli ATP synthase) (P0ABB0 whole entry, looked up): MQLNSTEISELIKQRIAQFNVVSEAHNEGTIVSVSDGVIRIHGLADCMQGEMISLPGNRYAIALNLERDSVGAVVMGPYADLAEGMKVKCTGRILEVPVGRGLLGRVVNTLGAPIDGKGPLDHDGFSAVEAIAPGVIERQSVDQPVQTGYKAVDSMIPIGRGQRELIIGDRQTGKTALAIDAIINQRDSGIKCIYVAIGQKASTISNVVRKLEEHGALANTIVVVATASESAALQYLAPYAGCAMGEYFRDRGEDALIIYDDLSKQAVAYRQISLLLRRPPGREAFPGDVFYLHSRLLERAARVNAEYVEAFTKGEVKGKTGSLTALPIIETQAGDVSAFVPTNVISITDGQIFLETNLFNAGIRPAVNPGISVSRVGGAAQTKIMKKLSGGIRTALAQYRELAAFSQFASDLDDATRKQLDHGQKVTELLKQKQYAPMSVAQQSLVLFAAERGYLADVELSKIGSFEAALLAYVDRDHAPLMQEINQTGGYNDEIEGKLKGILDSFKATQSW
Sequence of Ec-F1F0 (E. coli ATP synthase) (P0ABB4 whole entry, looked up): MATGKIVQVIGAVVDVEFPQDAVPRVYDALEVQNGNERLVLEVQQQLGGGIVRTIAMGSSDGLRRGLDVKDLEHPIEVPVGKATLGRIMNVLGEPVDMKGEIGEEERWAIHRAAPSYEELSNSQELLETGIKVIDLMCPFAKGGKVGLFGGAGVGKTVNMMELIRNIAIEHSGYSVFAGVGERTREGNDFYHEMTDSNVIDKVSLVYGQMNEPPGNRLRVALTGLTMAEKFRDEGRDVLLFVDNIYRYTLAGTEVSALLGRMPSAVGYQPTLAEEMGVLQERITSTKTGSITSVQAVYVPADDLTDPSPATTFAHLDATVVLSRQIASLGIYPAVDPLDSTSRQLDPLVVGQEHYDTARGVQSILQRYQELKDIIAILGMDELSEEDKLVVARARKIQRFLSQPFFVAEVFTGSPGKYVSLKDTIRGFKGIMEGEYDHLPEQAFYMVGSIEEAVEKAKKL

As to `Nc1ncnc2c1ncn2[C@@H]1O[C@H](COP(=O)(O)OP(=O)(O)O)[C@@H](O)[C@H]1O` [ADP], the “NADH-driven ATP synthesis in proteoliposomes, luciferase luminescence” value was “the Δp is used by Ec-F1F0 to generate ATP”.
